Results published in the NIST ThermoML archive (doi:10.1016/j.jct.2013.08.021).

What was measured:
[1] = xn = mol fraction of the nth substance listed; conditions: 101 kPa, Liquid; for speed of sound: Sing-around technique in a fixed-path interferometer; for mass density: Vibrating tube method
[2] = refractive index (Na D-line) (dimensionless); xn = mol fraction of the nth substance listed; conditions: 101 kPa, Liquid, Standard Abbe refractometry
[3] = molar heat capacity at constant pressure; conditions: 101 kPa, Liquid, Small sample (50 mg) DSC
[4] = refractive index (Na D-line) (dimensionless); conditions: 101 kPa, Liquid, Standard Abbe refractometry

CCC[N+]1(C)CCCC1.O=S(=O)([N-]S(=O)(=O)C(F)(F)F)C(F)(F)F + CO
Conditions | mass density, 298.15 K [kg/m3] | mass density, 303.15 K [kg/m3] | mass density, 308.15 K [kg/m3] | refractive index, 298.15 K | refractive index, 303.15 K | refractive index, 308.15 K | speed of sound, 298.15 K [m/s] | speed of sound, 303.15 K [m/s] | speed of sound, 308.15 K [m/s]
[1], x2 = 0 | 1427.86 | 1423.26 | 1418.83 | – | – | – | 1270.6 | 1259.5 | 1248.6
[1], x2 = 0.0462 | 1423.37 | 1418.86 | 1414.35 | – | – | – | 1268.8 | 1257.7 | 1246.8
[1], x2 = 0.0901 | 1418.77 | 1414.23 | 1409.69 | – | – | – | 1266.9 | 1255.8 | 1244.9
[1], x2 = 0.1769 | 1408.88 | 1404.34 | 1399.8 | – | – | – | 1262.7 | 1251.6 | 1240.6
[1], x2 = 0.2722 | 1396.02 | 1391.43 | 1386.85 | – | – | – | 1257.1 | 1246 | 1234.9
[1], x2 = 0.3855 | 1376.42 | 1371.67 | 1367.04 | – | – | – | 1248.7 | 1237.4 | 1226.2
[1], x2 = 0.568 | 1329.02 | 1324.31 | 1319.61 | – | – | – | 1228.6 | 1217 | 1205.7
[1], x2 = 0.685 | 1279.72 | 1274.95 | 1270.18 | – | – | – | 1208.5 | 1196.8 | 1185.2
[1], x2 = 0.798 | 1201.72 | 1196.89 | 1192.05 | – | – | – | 1180.4 | 1168.2 | 1156.1
[1], x2 = 0.8984 | 1075.97 | 1071.1 | 1066.22 | – | – | – | 1144.6 | 1131.4 | 1118.3
[1], x2 = 0.9467 | 973.15 | 968.3 | 963.44 | – | – | – | 1124.5 | 1110.3 | 1096.2
[2], x2 = 0 | – | – | – | 1.42064 | 1.41926 | 1.41782 | – | – | –
[2], x2 = 0.0462 | – | – | – | 1.42002 | 1.41862 | 1.41719 | – | – | –
[2], x2 = 0.0901 | – | – | – | 1.41937 | 1.41801 | 1.41659 | – | – | –
[2], x2 = 0.1769 | – | – | – | 1.41794 | 1.41675 | 1.41551 | – | – | –
[2], x2 = 0.2722 | – | – | – | 1.41609 | 1.41503 | 1.4136 | – | – | –
[2], x2 = 0.3855 | – | – | – | 1.41327 | 1.41206 | 1.41063 | – | – | –
[2], x2 = 0.568 | – | – | – | 1.40659 | 1.4055 | 1.404 | – | – | –
[2], x2 = 0.685 | – | – | – | 1.39953 | 1.39832 | 1.39695 | – | – | –
[2], x2 = 0.798 | – | – | – | 1.38838 | 1.38703 | 1.38569 | – | – | –
[2], x2 = 0.8984 | – | – | – | 1.37031 | 1.36877 | 1.36712 | – | – | –
[2], x2 = 0.9467 | – | – | – | 1.35498 | 1.35335 | 1.35185 | – | – | –

CCC[N+]1(C)CCCC1.O=S(=O)([N-]S(=O)(=O)C(F)(F)F)C(F)(F)F
Conditions | molar heat capacity at constant pressure, [3] [J/K/mol] | refractive index, [4]
293.15 K | – | 1.42208
298.15 K | – | 1.42069
303.15 K | – | 1.41928
308.15 K | – | 1.41787
313.15 K | 541 | 1.41644
314.15 K | 544 | –
315.15 K | 548 | –
316.15 K | 551 | –
317.15 K | 554 | –
318.15 K | 556 | 1.415
319.15 K | 559 | –
320.15 K | 561 | –
321.15 K | 563 | –
322.15 K | 565 | –
323.15 K | 567 | 1.41354
324.15 K | 569 | –
325.15 K | 571 | –
326.15 K | 573 | –
327.15 K | 575 | –
328.15 K | 576 | 1.41212
329.15 K | 578 | –
330.15 K | 579 | –
331.15 K | 581 | –
332.15 K | 582 | –
333.15 K | 584 | 1.41073
334.15 K | 585 | –
335.15 K | 586 | –
336.15 K | 588 | –
337.15 K | 589 | –
338.15 K | 590 | 1.40932
339.15 K | 591 | –
340.15 K | 593 | –
341.15 K | 594 | –
342.15 K | 595 | –
343.15 K | 597 | 1.40796
344.15 K | 598 | –
345.15 K | 599 | –
346.15 K | 600 | –
347.15 K | 601 | –
348.15 K | 601 | –
349.15 K | 602 | –
350.15 K | 604 | –
351.15 K | 604 | –
352.15 K | 605 | –
353.15 K | 606 | –
